Data taken from US12256759B2, “Methods for the reduction of methane production in ruminants” (Loam Bio Pty Ltd, priority 2021, dated 2025).

Tests used:
[1] = system: methane production; settings: among antimethanogenic compounds found in A. taxiformis; cited from earlier work
[2] = target: T1, methyl-coenzyme M reductase (MCR) (Methanothermobacter marburgensis, UniProt P11558); settings: prevents the final catalysis step of methanogenesis; cited from earlier work
T1 sequence (P11558 1-550): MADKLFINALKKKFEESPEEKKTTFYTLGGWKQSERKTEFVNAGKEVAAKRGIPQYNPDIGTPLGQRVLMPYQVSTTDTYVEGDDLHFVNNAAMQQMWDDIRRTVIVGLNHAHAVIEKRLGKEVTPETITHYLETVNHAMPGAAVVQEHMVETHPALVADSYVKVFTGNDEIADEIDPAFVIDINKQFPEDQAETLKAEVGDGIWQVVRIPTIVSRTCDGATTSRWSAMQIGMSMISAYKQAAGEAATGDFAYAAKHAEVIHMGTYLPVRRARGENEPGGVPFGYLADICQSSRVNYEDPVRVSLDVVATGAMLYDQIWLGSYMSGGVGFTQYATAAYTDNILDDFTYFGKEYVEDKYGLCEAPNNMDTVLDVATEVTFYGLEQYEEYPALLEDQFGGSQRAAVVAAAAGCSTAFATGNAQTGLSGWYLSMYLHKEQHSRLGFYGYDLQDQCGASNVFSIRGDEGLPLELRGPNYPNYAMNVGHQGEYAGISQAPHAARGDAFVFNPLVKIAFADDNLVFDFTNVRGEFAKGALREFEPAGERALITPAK
T1 sequence (P11560 1-443 partner): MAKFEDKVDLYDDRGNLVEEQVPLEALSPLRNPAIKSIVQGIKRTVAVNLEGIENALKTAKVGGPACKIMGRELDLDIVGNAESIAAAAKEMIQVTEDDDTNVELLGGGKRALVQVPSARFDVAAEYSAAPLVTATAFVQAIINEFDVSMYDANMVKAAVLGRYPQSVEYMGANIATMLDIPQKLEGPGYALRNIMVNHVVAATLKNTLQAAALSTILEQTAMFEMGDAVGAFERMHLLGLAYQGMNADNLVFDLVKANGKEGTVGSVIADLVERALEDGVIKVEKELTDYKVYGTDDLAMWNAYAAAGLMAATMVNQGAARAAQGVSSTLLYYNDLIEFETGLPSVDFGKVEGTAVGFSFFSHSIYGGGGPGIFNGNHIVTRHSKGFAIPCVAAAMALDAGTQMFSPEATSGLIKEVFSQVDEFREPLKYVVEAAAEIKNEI
T1 sequence (P11562 1-249 partner): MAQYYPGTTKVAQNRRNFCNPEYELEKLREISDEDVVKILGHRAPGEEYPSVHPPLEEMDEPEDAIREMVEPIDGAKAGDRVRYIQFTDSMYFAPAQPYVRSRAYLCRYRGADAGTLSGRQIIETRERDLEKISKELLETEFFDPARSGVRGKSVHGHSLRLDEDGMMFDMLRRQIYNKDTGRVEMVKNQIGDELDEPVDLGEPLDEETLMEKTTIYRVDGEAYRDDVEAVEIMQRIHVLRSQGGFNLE

[3] = system: Methanobrevibacter smithii; settings: 100 ul chloroform, positive control

In the case of `BrC(Br)Br` [bromoform], the “activity at inhibiting methane production” value [1] is listed as “highest activity at inhibiting methane production” and the “mode of action on methyl-coenzyme M reductase (MCR)” value [2] is listed as “competitive inhibitor or analog”.
For `ClC(Cl)Cl` [chloroform], the “inhibition of methane production” value [3] was “dramatic inhibition in methane production”.
In the case of `ClC(Br)Br` [dibromochloromethane], the “activity at inhibiting methane production” value [1] is listed as “highest activity at inhibiting methane production”.
